Measured values published in ChEMBL document CHEMBL3112474, “Discovery of substituted lactams as novel dual orexin receptor antagonists. Synthesis, preliminary structure-activity relationship studies and efforts towards improved metabolic stability and pharmacokinetic properties. Part 1” (Bioorg Med Chem Lett, 2014).
pIC50: −log10 of the molar value.

Legend:
[1] = Intrinsic clearance in human liver microsomes at 1 uM; assay type: ADME; details: read-out: CLH
Orexin receptor type 2 = target: T1, Orexin receptor type 2 (Homo sapiens, UniProt O43614); test: Antagonist activity at human orexin 2 receptor expressed in CHO cells assessed as inhibition of orexin-A-induced calcium mobilization by FLIPR assay; assay type: functional, cell-based
T1 sequence (O43614 whole entry): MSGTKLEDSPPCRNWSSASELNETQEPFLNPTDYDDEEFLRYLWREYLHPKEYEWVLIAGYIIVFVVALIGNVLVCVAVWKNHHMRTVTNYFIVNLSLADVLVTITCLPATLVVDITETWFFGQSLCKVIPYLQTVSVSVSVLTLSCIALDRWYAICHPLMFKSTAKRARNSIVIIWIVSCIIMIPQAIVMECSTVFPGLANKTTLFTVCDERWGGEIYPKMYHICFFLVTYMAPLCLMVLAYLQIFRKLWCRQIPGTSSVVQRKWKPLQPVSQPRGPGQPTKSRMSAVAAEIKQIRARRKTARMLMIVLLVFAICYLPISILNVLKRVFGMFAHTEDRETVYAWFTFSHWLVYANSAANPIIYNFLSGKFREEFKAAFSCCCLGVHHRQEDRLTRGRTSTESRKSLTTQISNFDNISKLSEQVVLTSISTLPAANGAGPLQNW

[2] = target: T2, Orexin/Hypocretin receptor type 1 (Homo sapiens, UniProt O43613); test: Antagonist activity at human orexin 1 receptor expressed in CHO cells assessed as inhibition of orexin-A-induced calcium mobilization by FLIPR assay; assay type: functional, cell-based
T2 sequence (O43613 whole entry): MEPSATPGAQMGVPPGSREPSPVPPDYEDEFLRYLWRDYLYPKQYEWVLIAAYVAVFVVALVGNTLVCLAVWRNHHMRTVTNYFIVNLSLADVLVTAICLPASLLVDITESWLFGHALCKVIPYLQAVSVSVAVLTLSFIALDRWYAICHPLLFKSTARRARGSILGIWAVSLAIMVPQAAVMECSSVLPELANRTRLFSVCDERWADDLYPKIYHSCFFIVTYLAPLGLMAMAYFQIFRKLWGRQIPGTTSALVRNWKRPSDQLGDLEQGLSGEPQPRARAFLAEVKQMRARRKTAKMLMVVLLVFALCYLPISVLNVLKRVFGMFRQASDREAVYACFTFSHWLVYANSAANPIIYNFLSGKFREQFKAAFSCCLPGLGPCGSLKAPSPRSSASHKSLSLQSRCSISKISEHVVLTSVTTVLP

[3] = Half life in human liver microsomes; assay type: ADME
[4] = Ratio of drug level in brain to plasma in Wistar rat at 100 mg/kg, po after 3 hrs; assay type: ADME, organism-based; design: dose 100 mg/kg, route oral; details: read-out: BPR
[5] = Plasma concentration in Wistar rat at 100 mg/kg, po after 3 hrs; assay type: ADME, organism-based; design: dose 100 mg/kg, route oral
[6] = Drug level in Wistar rat brain at 100 mg/kg, po after 3 hrs; assay type: ADME, organism-based; design: dose 100 mg/kg, route oral; details: read-out: Drug uptake
Cytochrome P450 3A4 = Cytochrome P450 3A4 (Homo sapiens, UniProt P08684); test: Inhibition of CYP3A4 (unknown origin); assay type: ADME
Chain of Cytochrome P450 3A4 (P08684 whole entry): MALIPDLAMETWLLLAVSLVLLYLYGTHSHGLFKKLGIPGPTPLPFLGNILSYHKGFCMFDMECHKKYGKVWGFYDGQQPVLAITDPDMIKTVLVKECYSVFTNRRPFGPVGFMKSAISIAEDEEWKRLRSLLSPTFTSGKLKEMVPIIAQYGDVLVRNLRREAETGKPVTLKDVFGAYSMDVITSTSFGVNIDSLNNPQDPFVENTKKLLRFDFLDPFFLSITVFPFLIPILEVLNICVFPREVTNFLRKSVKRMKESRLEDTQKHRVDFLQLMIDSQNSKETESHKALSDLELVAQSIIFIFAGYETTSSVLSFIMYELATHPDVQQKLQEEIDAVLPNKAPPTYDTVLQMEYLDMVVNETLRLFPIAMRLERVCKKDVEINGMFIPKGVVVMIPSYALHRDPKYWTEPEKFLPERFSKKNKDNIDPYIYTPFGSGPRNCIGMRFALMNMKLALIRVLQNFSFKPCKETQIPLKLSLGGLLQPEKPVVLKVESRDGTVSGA

Cerebrospinal fluid = test: Drug level in Wistar rat cerebrospinal fluid at 100 mg/kg, po; assay type: ADME, organism-based; design: dose 100 mg/kg, route oral; details: in vivo
Cytochrome P450 2C9 = Cytochrome P450 2C9 (Homo sapiens, UniProt P11712); test: Inhibition of CYP2C9 (unknown origin); assay type: ADME
Chain of Cytochrome P450 2C9 (P11712 whole entry): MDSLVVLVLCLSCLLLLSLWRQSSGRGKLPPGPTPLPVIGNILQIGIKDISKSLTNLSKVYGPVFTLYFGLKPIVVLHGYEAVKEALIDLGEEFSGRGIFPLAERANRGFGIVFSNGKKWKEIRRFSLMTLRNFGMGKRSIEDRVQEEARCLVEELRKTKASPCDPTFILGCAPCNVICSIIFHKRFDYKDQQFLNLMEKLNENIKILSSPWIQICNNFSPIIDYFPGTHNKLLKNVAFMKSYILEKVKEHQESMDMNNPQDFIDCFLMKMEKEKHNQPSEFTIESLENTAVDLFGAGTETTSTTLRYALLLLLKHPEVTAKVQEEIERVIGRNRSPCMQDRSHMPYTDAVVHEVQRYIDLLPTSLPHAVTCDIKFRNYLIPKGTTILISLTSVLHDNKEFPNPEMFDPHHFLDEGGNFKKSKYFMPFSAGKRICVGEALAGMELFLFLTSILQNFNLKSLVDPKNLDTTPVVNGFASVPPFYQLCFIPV

Cytochrome P450 2D6 = Cytochrome P450 2D6 (Homo sapiens, UniProt P10635); test: Inhibition of CYP2D6 (unknown origin); assay type: ADME
Chain of Cytochrome P450 2D6 (P10635 whole entry): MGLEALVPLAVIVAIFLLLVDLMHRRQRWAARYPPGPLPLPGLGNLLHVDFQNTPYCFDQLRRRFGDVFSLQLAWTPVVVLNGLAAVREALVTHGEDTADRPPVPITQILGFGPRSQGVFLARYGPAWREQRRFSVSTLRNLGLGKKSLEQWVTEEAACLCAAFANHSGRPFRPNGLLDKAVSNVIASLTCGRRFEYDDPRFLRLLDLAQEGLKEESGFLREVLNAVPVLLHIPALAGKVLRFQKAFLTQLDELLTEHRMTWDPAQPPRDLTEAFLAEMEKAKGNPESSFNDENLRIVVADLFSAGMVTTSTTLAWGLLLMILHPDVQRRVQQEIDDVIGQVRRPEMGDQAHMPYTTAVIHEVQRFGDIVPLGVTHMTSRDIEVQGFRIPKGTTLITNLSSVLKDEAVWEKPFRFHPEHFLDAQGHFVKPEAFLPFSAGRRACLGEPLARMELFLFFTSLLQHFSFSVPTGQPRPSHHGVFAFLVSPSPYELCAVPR

MDR1 [7] = test: Apparent passive permeability across apical to basolateral side in MDCK cells expressing human MDR1; assay type: ADME, cell-based, Canis lupus familiaris; details: dog
[8] = Intrinsic clearance in rat liver microsomes at 1 uM; assay type: ADME; details: read-out: CLH
MDR1 [9] = test: Apparent passive permeability across basolateral to apical side in MDCK cells expressing human MDR1; assay type: ADME, cell-based, Canis lupus familiaris; details: dog

Row | Structure (SMILES) | microsomal CLint at 1 µM [1] [µL/min/mg] | pIC50 (Orexin receptor type 2) | pIC50 [2] | also measured
1 | COc1cccc(OC)c1C1CCCC(=O)N1Cc1cccc(-c2ncccn2)c1 (configuration not stated) | > 1250 |  |  | 
2 | COc1cccc(OC)c1C1CCCC(=O)N1C(C)c1ccc(OC(F)(F)F)cc1 (mixture of isomers) | > 1250 | 7.68 | 6.85 | 
3 | COc1cccc(OC)c1C1CCC(C)C(=O)N1Cc1ccc(OC(F)(F)F)cc1 (mixture of isomers) | 649 |  |  | 
4 | COc1cccc(OC)c1C1CC(C)CC(=O)N1Cc1ccc(OC(F)(F)F)cc1 (mixture of isomers) | 645 |  |  | 
5 | COc1cccc(OC)c1C1C2CC2C(=O)N1Cc1ccc(OC(F)(F)F)cc1 (mixture of isomers) |  | 5.97 | 5.94 | 
6 | COc1cccc(OC)c1C1CC(C)C(=O)N1Cc1ccc2oc3ccccc3c2c1 (mixture of isomers) | 260 | 8.05 | 8.40 | 
7 | COc1cccc(OC)c1C1CC(C)C(=O)N1Cc1ccc2sc(C)nc2c1 (mixture of isomers) | 88 |  |  | 
8 | COc1cc(OC)c(C2CCCCN2Cc2ccc(OC(F)(F)F)cc2)c(OC)c1 (racemic) |  | < 5.00 | 5.80 | 
9 | COc1cccc(OC)c1C1CCCC(=O)N1Cc1ccc2ccccc2n1 (racemic) |  |  | 7.31 | 
10 | COc1cccc(F)c1C1CCCC(=O)N1Cc1ccc(OC(F)(F)F)cc1 (racemic) |  | 6.79 |  | 
11 | COc1cccc(OC)c1C1CCCC(=O)N1Cc1ccccc1 (racemic) |  | 6.38 | 5.62 | 
12 | COc1cccc(OC)c1C1CCCC(=O)N1c1ccccc1 (racemic) |  | < 5.00 | < 5.00 | 
13 | COc1cccc(OC)c1C1CCCC(=O)N1CCc1ccccc1 (racemic) |  | 5.88 | 5.01 | 
14 | COc1cccc(OC)c1C1CCCC(=O)N1Cc1ccc(Oc2ccccc2)cc1 (racemic) |  | 7.54 | 6.27 | 
15 | COc1cccc(OC)c1C1CCCC(=O)N1Cc1cccc(-c2ccccc2)c1 (racemic) | > 1250 | 7.55 | 7.19 | 
16 | COc1cccc(OC)c1C1CCCC(=O)N1Cc1ccc2ccccc2c1 (racemic) | > 1250 |  |  | half-life [3]: < 1 min
17 | COc1cccc(OC)c1C1CCCC(=O)N1Cc1cnc2ccccc2c1 (racemic) |  | 6.66 | 6.17 | 
18 | COc1cccc(OC)c1C1CCCC(=O)N1Cc1ccc2sc(C)nc2c1 (racemic) | 860 | 7.92 | 7.49 | 
19 | COc1cccc(OC)c1C1CCCC(=O)N1Cc1ccc2oc3ccccc3c2c1 (racemic) | 1200 |  |  | 
20 | COc1cccc(OC)c1C1CCCC(=O)N1Cc1cccc(-c2ccccc2)n1 (racemic) | > 1250 |  |  | 

Row | Structure (SMILES) | microsomal CLint at 1 µM [1] [µL/min/mg] | pIC50 (Orexin receptor type 2) | pIC50 [2] | also measured
21 | COc1cccc(OC)c1C1CCCC(=O)N1Cc1ccnc(-c2ccccc2)c1 (racemic) | > 1250 |  |  | 
22 | COc1cccc(OC)c1C1CCCC(=O)N1Cc1cccc(-c2ccccn2)c1 (racemic) | > 1250 |  |  | 
23 | COc1cccc(OC)c1C1CCCC(=O)N1Cc1cccc(-c2csc(C)n2)c1 (racemic) | > 1250 |  |  | 
24 | COc1cccc(OC)c1C1CCCC(=O)N1Cc1cccc(-n2nccn2)c1 (racemic) | > 1250 |  |  | 
25 | COc1cccc(OC)c1C1CCCC(=O)N1Cc1ccnc(-c2nccs2)c1 (racemic) | > 1250 |  |  | 
26 | COc1cccc(OC)c1C1CCCC(=O)N1Cc1ccnc(-n2cccn2)c1 (racemic) | > 1250 |  |  | 
27 | COc1cccc(OC)c1C1CCCC(=O)N1Cc1csc(-c2ccccc2)n1 (racemic) | > 1250 | 8.22 | 7.35 | 
28 | COc1ccnc(OC)c1C1CCCC(=O)N1Cc1ccc2oc3ccccc3c2c1 (racemic) | 1130 |  |  | 
29 | COc1ccnc(OC)c1C1CCCC(=O)N1Cc1csc(-c2ccccc2)n1 (racemic) | 912 |  |  | 
30 | COc1ccc2nc(C)oc2c1C1CCCC(=O)N1Cc1cccc(-c2ccccc2)c1 (racemic) | > 1250 | 7.03 | 7.27 | 
31 | COc1ccc2nc(C)oc2c1C1CCCC(=O)N1Cc1cccc(-c2csc(C)n2)c1 (racemic) | > 1250 | 7.19 | 7.77 | 
32 | COc1cccc(OC)c1C1COCC(=O)N1Cc1ccc(OC(F)(F)F)cc1 (racemic) | > 1250 |  |  | 
33 | COc1cccc(OC)c1[C@H]1C[C@H](C)C(=O)N1Cc1ccc(OC(F)(F)F)cc1 (racemic) | 257 |  |  | 
34 | COc1cccc(OC)c1C1COC(=O)N1Cc1ccc(OC(F)(F)F)cc1 (racemic) |  | 6.11 | 5.58 | 
35 | COc1cccc(OC)c1C1c2ccccc2C(=O)N1Cc1ccc(OC(F)(F)F)cc1 (racemic) |  | < 5.00 | < 5.00 | 
36 | COc1cccc(OC)c1C1SCC(=O)N1Cc1ccc(OC(F)(F)F)cc1 (racemic) |  | 7.80 | 6.81 | 
37 | COc1cccc(OC)c1C1CCC(=O)N1Cc1ccc(OC(F)(F)F)cc1 (racemic) | 670 |  |  | 
38 | COc1cccc(OC)c1C1CCCC(=O)N1Cc1ccc(OC(F)(F)F)cc1 (racemic) | > 1250 | 7.60 | 6.55 | Kp at 3 h [4]: 1.6; concentration at 3 h [5]: 94 ng/mL; concentration at 3 h [6]: 153 ng/g
39 | COc1cccc(OC)c1C1CCCCC(=O)N1Cc1ccc(OC(F)(F)F)cc1 (racemic) | > 1250 | 7.13 | 6.58 | 
40 | COc1cccc(OC)c1C1CCCC(=O)N1Cc1ccc2ccccc2n1 (single isomer, unassigned) | > 1250 |  |  | pIC50 (Cytochrome P450 3A4): < 4.52; Kp at 3 h [4]: 0.8; Drug uptake (Cerebrospinal fluid): 23 ng/mL; pIC50 (Cytochrome P450 2C9): < 4.52; pIC50 (Cytochrome P450 2D6): < 4.52; Papp A→B (MDR1 [7]): 24.2 ×10⁻⁶ cm/s; concentration at 3 h [5]: 140 ng/mL; microsomal CLint at 1 µM [8]: > 1250 µL/min/mg; Papp B→A (MDR1 [9]): 63.2 ×10⁻⁶ cm/s; concentration at 3 h [6]: 108 ng/g
